Results: article PMC3411462, “Long-acting κ opioid antagonists nor-BNI, GNTI and JDTic: pharmacokinetics in mice and lipophilicity” (BMC Pharmacology, 2012)
“And” between values parts separate entries of the source, which are not always exact repeats. Equal values may be shown once. Read-outs that look alike come from different tables or passages of the source.

What was measured:
[1] = Brain and plasma concentrations in mice after intraperitoneal administration (LC-MS-MS), non-compartmental analysis; assay type: in vivo; settings: for [drug],brain (free base equivalent) / [drug],plasma (free base equivalent): listed as nor-BNI.2HCl.H2O; for [drug],brain (free base equivalent) / [drug],plasma (free base equivalent) / AUC(0-inf) / concentration at 0.5 h / concentration at 1 h / concentration at 2 h / concentration at 4 h / concentration at 24 h / CL/F / Vd/F: 10 mg/kg; for AUC(0-inf) / Kp uu / Kp / MRT inf / concentration at 0.5 h / concentration at 1 h / concentration at 2 h / Tmax / AUC(0-t) / Cmax / k el / half-life / concentration at 4 h / concentration at 24 h / CL/F / Vd/F: male, mouse; for MRT inf: read-out: MRT 0-inf_obs; for k el: read-out: Lambda_z (converted); for half-life: read-out: t1/2 (converted)
[2] = test system: mice; test: Fatalities and behavioral effects after i.p. administration; settings: 100 mg kg^-1
Method: Experiments were performed between 10 am and 6 pm. Mice were not used in other experiments, or exposed to other drugs, before testing began.
Doses are reported by weight of the specified salt. Intraperitoneal injections were administered in distilled water vehicle (10 mL kg^-1). Body mass was measured to ±0.1 g. Some values were inadvertently measured on a low-precision balance (± 2.5 g); these timepoints were replicated at ±0.1 g.

[3] = Plasma binding (unbound fraction by ultracentrifugation); assay type: in vitro ADME; settings: 5 μM drug, mean, n = 3
Outline: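 Plasma was spiked with 5 μM drug and ultracentrifuged at 600,000 g for 5 h at 37 °C. The middle water layer and the original spiked matrix were matrix-matched, extracted with acetonitrile and measured by LC-MS-MS. Fraction unbound is the water-layer to spiked-matrix concentration ratio, corrected for dilution.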

[4] = Octanol-buffer distribution (log D7.4); assay type: physicochemical; settings: 1-octanol/PBS
[5] = 0.5 h, 10 mg/kg i.p., individual mice
[6] = 1 h, 10 mg/kg i.p., individual mice
[7] = 2 h, 10 mg/kg i.p., individual mice
[8] = Swiss-Webster, ip, brain NCA, 10 mg/kg i.p.
[9] = Swiss-Webster, ip, plasma NCA, 10 mg/kg i.p.
[10] = within 1 hour, 10 mg kg^-1 i.p.
[11] = within 4 hours, 10 mg kg^-1 i.p.

Oc1ccc2c3c1O[C@H]1c4[nH]c5c(c4C[C@@]4(O)[C@@H](C2)N(CC2CC2)CC[C@]314)C[C@@]1(O)[C@H]2Cc3ccc(O)c4c3[C@@]1(CCN2CC1CC1)[C@H]5O4 [nor-BNI, norbinaltorphimine]
Time of maximal mean plasma level ([1]; 10 mg kg^-1 i.p., mice): 30 min
[drug],brain (free base equivalent) [1, 5]: 477 ng/g and 471 ng/g and 309 ng/g and 609 ng/g and 438 ng/g
[drug],plasma (free base equivalent) [1, 5]: 6130 ng/mL and 4810 ng/mL and 2110 ng/mL and 3050 ng/mL
[drug],brain (free base equivalent) [1, 6]: 250 ng/g and 396 ng/g and 299 ng/g and 372 ng/g and 207 ng/g
[drug],plasma (free base equivalent) [1, 6]: 3060 ng/mL and 2060 ng/mL and 1510 ng/mL and 1140 ng/mL and 1170 ng/mL
[drug],brain (free base equivalent) [1, 7]: <120 ng/g
[drug],plasma (free base equivalent) [1, 7]: 343 ng/mL and 309 ng/mL
[drug],plasma (free base equivalent) ([1]; 4 h, 10 mg/kg i.p., individual mice): 173 ng/mL and 156 ng/mL
[drug],plasma (free base equivalent) ([1]; 24 h, 10 mg/kg i.p., individual mice): 63 ng/mL and 50 ng/mL and 14 ng/mL
Peak unbound brain level ([1]; at 30 minutes, 10 mg kg^-1 i.p., estimate): ≤ 26 nM
AUMC 0-inf_obs ([1]; brain NCA, 10 mg/kg i.p.): 712.925 ng/ml*h^2
Tlag ([1]; brain NCA, 10 mg/kg i.p.): 0 h
C max,brain ([1]; brain, 10 mg kg^-1 i.p., mice): 443 ng/mL
AUC(0-inf) ([1]; Swiss-Webster (Crl:CFW(SW)), brain, ip, brain NCA, 10 mg/kg i.p., read-out: AUC 0-inf_obs): 593 ng·h/mL
Kp uu ([1]; Swiss-Webster (Crl:CFW(SW)), brain/plasma (unbound), ip, supplement, 10 mg/kg i.p., read-out: Kp,uu,brain (AUC0–∞,brain,u / AUC0–∞,p,u)): < 0.00725
Kp ([1]; Swiss-Webster (Crl:CFW(SW)), brain/plasma, ip, supplement, 10 mg/kg i.p., read-out: Kp,brain (AUC0–∞,brain / AUC0–∞,p)): 0.0924
MRT inf ([1]; Swiss-Webster (Crl:CFW(SW)), ip, brain NCA, 10 mg/kg i.p.): 72.1 min
Kp uu ([1]; Swiss-Webster, brain and plasma (unbound), ip, 10 mg kg^-1 i.p., mice, read-out: Cmax,brain,u/Cmax,p,u): < 0.009
Kp uu ([1]; Swiss-Webster, brain and plasma (unbound), ip, 10 mg kg^-1 i.p., mice, read-out: K p,uu,brain (AUC0–∞,brain,u/AUC0–∞,p,u)): < 0.007
Kp ([1]; Swiss-Webster, brain and plasma, ip, 10 mg kg^-1 i.p., mice, read-out: Cmax,brain/Cmax,p): 0.11
Kp ([1]; Swiss-Webster, brain and plasma, ip, 10 mg kg^-1 i.p., mice, read-out: K p,brain (AUC0–∞,brain/AUC0–∞,p)): 0.09
concentration at 0.5 h ([1]; Swiss-Webster, brain, intraperitoneal, 0.5 h, read-out: Conc (brain, NCA input)): 443 ng/mL
concentration at 1 h ([1]; Swiss-Webster, brain, intraperitoneal, 1 h, read-out: Conc (brain, NCA input)): 308 ng/mL
concentration at 2 h ([1]; Swiss-Webster, brain, intraperitoneal, 2 h, read-out: Conc (brain, NCA input)): 96.3 ng/mL
concentration at 0.5 h ([1]; Swiss-Webster, brain, ip, 0.5 h, 10 mg/kg i.p., individual mice, read-out: [drug],brain (free base equivalent)): 354 ng/g
concentration at 0.5 h ([1]; Swiss-Webster, brain, ip, 0.5 h, 10 mg/kg i.p., read-out: mean (brain)): 443 ng/g
concentration at 1 h ([1]; Swiss-Webster, brain, ip, 1 h, 10 mg/kg i.p., individual mice, read-out: [drug],brain (free base equivalent)): 324 ng/g
concentration at 1 h ([1]; Swiss-Webster, brain, ip, 1 h, 10 mg/kg i.p., read-out: mean (brain)): 308 ng/g
concentration at 2 h ([1]; Swiss-Webster, brain, ip, 2 h, 10 mg/kg i.p., individual mice, read-out: [drug],brain (free base equivalent)): 169 ng/g
concentration at 2 h ([1]; Swiss-Webster, brain, ip, 2 h, 10 mg/kg i.p., <MRC substituted by MRC/2, read-out: mean (brain)): 96 ng/g
AUC(0-inf) ([1]; Swiss-Webster, brain, ip, brain, 10 mg kg^-1 i.p., non-compartmental analysis, read-out: AUC 0–∞,brain): 593 ng·h/mL
Tmax ([1]; Swiss-Webster, in vivo, ip, ·2HCl salts, 10 mg kg^-1 i.p., mice): 30 min
AUC(0-t) [1, 8]: 501 ng·h/mL
Tmax [1, 8]: 30 min
Cmax ([1]; Swiss-Webster, ip, brain NCA, 10 mg/kg i.p., read-out: Cmax): 443 ng/mL
k el [1, 8]: 0.000288 s⁻¹
half-life [1, 8]: 40.1 min
AUC(0-t) [1, 9]: 5910 ng·h/mL
Tmax [1, 9]: 30 min
k el [1, 9]: 2.28e-05 s⁻¹
MRT inf [1, 9]: 360 min
half-life [1, 9]: 507 min
Cmax ([1]; Swiss-Webster, ip, plasma, 10 mg kg^-1 i.p., mice, read-out: C max,p): 4020 ng/mL
concentration at 0.5 h ([1]; Swiss-Webster, plasma, intraperitoneal, 0.5 h, read-out: Conc (plasma, NCA input)): 4020 ng/mL
concentration at 1 h ([1]; Swiss-Webster, plasma, intraperitoneal, 1 h, read-out: Conc (plasma, NCA input)): 1790 ng/mL
concentration at 2 h ([1]; Swiss-Webster, plasma, intraperitoneal, 2 h, read-out: Conc (plasma, NCA input)): 339 ng/mL
concentration at 4 h ([1]; Swiss-Webster, plasma, intraperitoneal, 4 h, read-out: Conc (plasma, NCA input)): 148 ng/mL
concentration at 24 h ([1]; Swiss-Webster, plasma, intraperitoneal, 24 h, read-out: Conc (plasma, NCA input)): 42 ng/mL
concentration at 0.5 h ([1]; Swiss-Webster, plasma, ip, 0.5 h, 10 mg/kg i.p., read-out: mean (plasma)): 4020 ng/mL
concentration at 1 h ([1]; Swiss-Webster, plasma, ip, 1 h, 10 mg/kg i.p., read-out: mean (plasma)): 1790 ng/mL
concentration at 2 h ([1]; Swiss-Webster, plasma, ip, 2 h, 10 mg/kg i.p., individual mice, read-out: [drug],plasma (free base equivalent)): 366 ng/mL
concentration at 2 h ([1]; Swiss-Webster, plasma, ip, 2 h, 10 mg/kg i.p., read-out: mean (plasma)): 339 ng/mL
concentration at 4 h ([1]; Swiss-Webster, plasma, ip, 4 h, 10 mg/kg i.p., individual mice, read-out: [drug],plasma (free base equivalent)): 116 ng/mL
concentration at 4 h ([1]; Swiss-Webster, plasma, ip, 4 h, 10 mg/kg i.p., read-out: mean (plasma)): 148 ng/mL
concentration at 24 h ([1]; Swiss-Webster, plasma, ip, 24 h, 10 mg/kg i.p., <MRC substituted by MRC/2, read-out: mean (plasma)): 42 ng/mL
AUC(0-inf) ([1]; Swiss-Webster, plasma, ip, plasma NCA, 10 mg/kg i.p., read-out: AUC 0-inf_obs): 6420 ng·h/mL
CL/F ([1]; Swiss-Webster, plasma, ip, plasma NCA, 10 mg/kg i.p., read-out: Cl/F_obs (converted)): 26 mL/min/kg
Vd/F ([1]; Swiss-Webster, plasma, ip, plasma NCA, 10 mg/kg i.p., read-out: Vz/F_obs): 19 L/kg
AUC(0-inf) ([1]; Swiss-Webster, plasma, ip, plasma, 10 mg kg^-1 i.p., non-compartmental analysis, read-out: AUC 0–∞,p): 6420 ng·h/mL
CL/F ([1]; Swiss-Webster, plasma, ip, plasma, 10 mg kg^-1 i.p., non-compartmental analysis, read-out: CL/F (converted)): 28.3 mL/min/kg
Vd/F ([1]; Swiss-Webster, plasma, ip, plasma, 10 mg kg^-1 i.p., non-compartmental analysis, read-out: V z /F): 19 L/kg
AUMC 0-inf_obs ([1]; plasma NCA, 10 mg/kg i.p.): 38503.5 ng/ml*h^2
Tlag ([1]; plasma NCA, 10 mg/kg i.p.): 0 h
C max,brain,u ([1]; unbound brain, 10 mg kg^-1 i.p., in vivo brain binding assumed at least 3-fold greater than homogenate): < 26 nM
Decline of mean brain level from peak [1, 10]: 31%
Decline of mean plasma concentration from peak [1, 10]: 56%
Decline of mean plasma concentration from peak ([1]; within 2 hours, 10 mg kg^-1 i.p.): 92%
Decline of brain levels [1, 11]: at least 75%
Decline of mean plasma concentration from peak [1, 11]: at least 80%
Behavioral effects observed [2]: Only mild behavioral effects, such as hiccup-like spasms and shivering
Fatalities [2]: no fatalities
fraction unbound at 5 h, 5 μM [3]: 0.51
logD ([4]; pH 7.4, pooled mixing times 1, 10, 30 min): 1.53
logD at 1 min ([4]; mixing time 1 min, octanol/PBS pH 7.4): 1.43
logD at 10 min ([4]; mixing time 10 min, octanol/PBS pH 7.4): 1.59
logD at 30 min ([4]; mixing time 30 min, octanol/PBS pH 7.4): 1.57
